The source of these data is US5442101A, “Methylenebisphosphonic acid derivatives” (Leiras Oy, priority 1990, dated 1995).

The test system of the assay is parathyroid hormone stimulated bone resorption in mouse calvaria. Kind of assay: parathyroid hormone stimulated bone resorption inhibition activity in vitro in mouse calvaria (antiresorptive activity). It is filed as cell-based. The conditions noted are these: PTH stimulated.

`CCN(CC)P(=O)(O)C(Cl)(Cl)P(=O)(O)O` [(dichloromethylene)bisphosphonic acid mono(diethylamide)] returned an inhibition at 100 µM of 43%.

Regarding `O=P(O)(O)C(Cl)(Cl)P(=O)(O)O` [Clodronate, reference compound], the inhibition at 100 µM was 43%.

For the compound `CCN(CC)P(=O)(OC(C)C)C(Cl)(Cl)P(=O)(O)O` (centres unmarked) [(dichloromethylene)bisphosphonic acid P-monoisopropyl ester P-mono(diethylamide)], the “Antiresorptive activity, Inhibition of resorption (%)” value (100 μM) was 44%.

`CCN(CC)P(=O)(O)C(Cl)(Cl)P(=O)(O)N(CC)CC` [(dichloromethylene)bisphosphonic acid P,P'-bis(diethylamide)] came in with an inhibition at 100 µM of 38%.

As to `CCN(CC)P(=O)(O)C(Cl)(Cl)P(=O)(N(CC)CC)N(CC)CC` [(dichloromethylene)bisphosphonic acid tris(diethylamide)], the inhibition at 100 µM is 44%.
